{"source": "patent US5686637A", "about": "“Antifungal agent” (Merck & Co., Inc., priority 1995, dated 1997)", "key": {"[1]": {"system": "S. cerevisiae (MY 2141)", "assay": "microbroth dilution assay (MIC/MFC), S. cerevisiae (MY 2141)", "assay_type": "cell-based", "conditions": "Saccharomyces cerevisiae", "experimental": "(§1) In the microbroth dilution assay, microorganisms were selected by streaking a yeast culture on Sabouraud dextrose agar (SDA) incubating for 24-48 hours at 35°-37° C., thereafter selected 3 to 5 characteristic colonies and transferring to a fresh plate and incubating under similar conditions. From the regrowth, 3 to 5 colonies were selected and suspended in. 10 milliliters of YM broth (Dffco) and incubated for 4 hours at 35°-37° C. shaking at 225 rpm. The 4 hour broth cultures were adjusted optically to 86% transmission resulting in a concentration of 1-5×10^6 cfu/ml which was further diluted 1:100 in YNBD (yeast nitrogen base with 1% dextrose) to obtain a concentration of 1-5×10^4 cfu/ml for use as inocula.\n(§2) The test compound, Compound I, was prepared as a stock solution of 128 μg/ml in 20% methanol and 75 μl of said solution delivered to each well in column 1 of a 96-well, U-bottomed microtiter plate. The compounds in column 1 were then serially diluted two-fold to yield concentrations from 32 μg/ml to 0.15 μg/ml. […]\n(§3) After recording MICs at 24 hours, the microtiter plates were shaken gently to resuspend the cells. […] For Cryptococus neoformans, SDA plates were inoculated at 48 hours after recording MICs and incubated 48 hours before reading the MFC. […]"}, "[2]": {"system": "C. albicans (CLY539)", "assay": "microbroth dilution assay (MIC/MFC), C. albicans (CLY539)", "assay_type": "cell-based", "conditions": "Candida albicans, 24 h", "experimental": "as §1\n(§4) The test compound, Compound I, was prepared as a stock solution of 128 μg/ml in 20% methanol and 75 μl of said solution delivered to each well in column 1 of a 96-well, U-bottomed microtiter plate. The compounds in column 1 were then serially diluted two-fold to yield concentrations from 32 μg/ml to 0.15 μg/ml.\nas §4, with “Amphotericin, the control” for “The test”, “compound,” for “compound, Compound I,”, “512” for “128”, “10% DMSO” for “20% methanol”, “128” for “32”, “0.6” for “0.15”\n(§5) The plates containing the diluted compounds were then inoculated with 75 μl/well of the appropriate microorganism and incubated for 48 hours at 35°-37° C. with MIC (minimum inhibitory concentration) determinations carried out after 24 hours of incubation. Growth and sterility controls for each organism and sterility checks for the compounds also were carded out.\n(§6) After recording MICs at 24 hours, the microtiter plates were shaken gently to resuspend the cells. A 1.5 μl sample was transferred from each well of the 96-well microtiter plate to a single reservoir inoculum plate containing SDA. The inoculated SDA and corresponding microtiter plates were incubated for 24 hours at 35°-37° C. For Cryptococus neoformans, SDA plates were inoculated at 48 hours after recording MICs and incubated 48 hours before reading the MFC. MFC is the lowest concentration of compound at which either no growth or growth of ≤4 colonies occur."}, "[3]": {"system": "C. parapsilosis (MY 1010)", "assay": "microbroth dilution assay (MIC/MFC), C. parapsilosis (MY 1010)", "assay_type": "cell-based", "conditions": "Lodderomyces parapsilosis, 24 h", "experimental": "as §1, §4\nas §4, with “Amphotericin, the control” for “The test”, “compound,” for “compound, Compound I,”, “512” for “128”, “10% DMSO” for “20% methanol”, “128” for “32”, “0.6” for “0.15”\nas §5, §6"}, "[4]": {"system": "Aspergillus fumigatus (MF 4839)", "assay": "microbroth dilution assay (MIC), Aspergillus fumigatus (MF 4839)", "assay_type": "cell-based", "conditions": "Aspergillus fumigatus, 24 h, read-out: Minimum Inhibitory Concentration (MIC)", "experimental": "as §1, §2, §3"}, "[5]": {"system": "C. glabrata (MY1381)", "assay": "microbroth dilution assay (MIC/MFC), C. glabrata (MY1381)", "assay_type": "cell-based", "conditions": "Nakaseomyces glabratus, 24 h", "experimental": "as §1, §4\nas §4, with “Amphotericin, the control” for “The test”, “compound,” for “compound, Compound I,”, “512” for “128”, “10% DMSO” for “20% methanol”, “128” for “32”, “0.6” for “0.15”\nas §5, §6"}, "[6]": {"system": "C. pseudotropicalis (MY 2099)", "assay": "microbroth dilution assay (MIC/MFC), C. pseudotropicalis (MY 2099)", "assay_type": "cell-based, Candida pseudotropicalis", "conditions": "Kluyveromyces marxianus, 24 h", "experimental": "as §1, §4\nas §4, with “Amphotericin, the control” for “The test”, “compound,” for “compound, Compound I,”, “512” for “128”, “10% DMSO” for “20% methanol”, “128” for “32”, “0.6” for “0.15”\nas §5, §6"}, "[7]": {"system": "C. guillermondii (MY 1019)", "assay": "microbroth dilution assay (MIC/MFC), C. guillermondii (MY 1019)", "assay_type": "cell-based", "conditions": "24 h", "experimental": "as §1, §4\nas §4, with “Amphotericin, the control” for “The test”, “compound,” for “compound, Compound I,”, “512” for “128”, “10% DMSO” for “20% methanol”, “128” for “32”, “0.6” for “0.15”\nas §5, §6"}, "[8]": {"system": "Saccharomyces cerevisiae (MY 2140)", "assay": "microbroth dilution assay (MIC/MFC), Saccharomyces cerevisiae (MY 2140)", "assay_type": "cell-based", "conditions": "Saccharomyces cerevisiae, 24 h", "experimental": "as §1, §4\nas §4, with “Amphotericin, the control” for “The test”, “compound,” for “compound, Compound I,”, “512” for “128”, “10% DMSO” for “20% methanol”, “128” for “32”, “0.6” for “0.15”\nas §5, §6"}, "[9]": {"system": "C. albicans (CA2)", "assay": "microbroth dilution assay (MIC/MFC), C. albicans (CA2)", "assay_type": "cell-based", "conditions": "Candida albicans, 24 h", "experimental": "as §1, §4\nas §4, with “Amphotericin, the control” for “The test”, “compound,” for “compound, Compound I,”, “512” for “128”, “10% DMSO” for “20% methanol”, “128” for “32”, “0.6” for “0.15”\nas §5, §6"}, "[10]": {"system": "C. topicalis (MY1012)", "assay": "microbroth dilution assay (MIC/MFC), C. topicalis (MY1012)", "assay_type": "cell-based", "conditions": "24 h", "experimental": "as §1, §4\nas §4, with “Amphotericin, the control” for “The test”, “compound,” for “compound, Compound I,”, “512” for “128”, “10% DMSO” for “20% methanol”, “128” for “32”, “0.6” for “0.15”\nas §5, §6"}, "[11]": {"system": "Candida albicans (MY 1055)", "assay": "microbroth dilution assay (MIC/MFC), Candida albicans (MY 1055)", "assay_type": "cell-based", "conditions": "Candida albicans, 24 h", "experimental": "as §1, §4\nas §4, with “Amphotericin, the control” for “The test”, “compound,” for “compound, Compound I,”, “512” for “128”, “10% DMSO” for “20% methanol”, “128” for “32”, “0.6” for “0.15”\nas §5, §6"}, "[12]": {"system": "A. fumigatus (5668)", "assay": "microbroth dilution assay (MIC), A. fumigatus (5668)", "assay_type": "cell-based", "conditions": "Aspergillus fumigatus, 24 h, read-out: Minimum Inhibitory Concentration (MIC)", "experimental": "as §1, §2, §3"}, "[13]": {"system": "Cryptococcus neoformans (MY 2062)", "assay": "microbroth dilution assay (MIC), Cryptococcus neoformans (MY 2062)", "assay_type": "cell-based", "conditions": "Cryptococcus neoformans, 24 h, read-out: Minimum Inhibitory Concentration (MIC)", "experimental": "as §1, §2, §3"}, "[14]": {"system": "C. tropicalis (MY1124)", "assay": "microbroth dilution assay (MIC/MFC), C. tropicalis (MY1124)", "assay_type": "cell-based", "conditions": "Candida tropicalis, 24 h", "experimental": "as §1, §4\nas §4, with “Amphotericin, the control” for “The test”, “compound,” for “compound, Compound I,”, “512” for “128”, “10% DMSO” for “20% methanol”, “128” for “32”, “0.6” for “0.15”\nas §5, §6"}, "[15]": {"conditions": "read-out: Minimum Fungicidal Concentration (MFC)"}, "[16]": {"conditions": "read-out: Minimum Inhibitory Concentration (MIC)"}}, "data": [{"smiles": "C[C@@H]1[C@H](O)[C@@H](C)/C=C/C=C/C=C/C=C/C=C/C=C/C=C/[C@H](O[C@@H]2O[C@H](C)[C@@H](O)[C@H](N)[C@@H]2O)C[C@@H]2O[C@](O)(C[C@@H](O)C[C@@H](O)[C@H](O)CC[C@@H](O)C[C@@H](O)CC(=O)O[C@H]1C)C[C@H](O)[C@H]2C(=O)O", "note": "[Amphotericin B]", "values": [{"measurement": "MIC", "setting": "[1]; 24 h, 35°-37° C., read-out: Minimum Inhibitory Concentration (MIC)", "value": 1, "unit": "µg/mL"}, {"measurement": "MFC", "setting": "[1]; no growth or ≤4 colonies on SDA after 24 h, read-out: Minimum Fungicidal Concentration (MFC)", "value": 1, "unit": "µg/mL"}, {"measurement": "MFC", "setting": "[2]; [15]", "value": 2, "unit": "µg/mL"}, {"measurement": "MIC", "setting": "[2]; [16]", "value": 1, "unit": "µg/mL"}, {"measurement": "MFC", "setting": "[3]; [15]", "value": 1, "unit": "µg/mL"}, {"measurement": "MIC", "setting": "[3]; [16]", "value": 1, "unit": "µg/mL"}, {"measurement": "MIC", "setting": "[4]", "value": 2, "unit": "µg/mL"}, {"measurement": "MFC", "setting": "[5]; [15]", "value": 2, "unit": "µg/mL"}, {"measurement": "MIC", "setting": "[5]; [16]", "value": 2, "unit": "µg/mL"}, {"measurement": "MFC", "setting": "[6]; [15]", "value": 2, "unit": "µg/mL"}, {"measurement": "MIC", "setting": "[6]; [16]", "value": 2, "unit": "µg/mL"}, {"measurement": "MFC", "setting": "[7]; [15]", "value": 2, "unit": "µg/mL"}, {"measurement": "MIC", "setting": "[7]; [16]", "value": 1, "unit": "µg/mL"}, {"measurement": "MFC", "setting": "[8]; [15]", "value": 1, "unit": "µg/mL"}, {"measurement": "MIC", "setting": "[8]; [16]", "value": 1, "unit": "µg/mL"}, {"measurement": "MFC", "setting": "[9]; [15]", "value": 1, "unit": "µg/mL"}, {"measurement": "MIC", "setting": "[9]; [16]", "value": 1, "unit": "µg/mL"}, {"measurement": "MFC", "setting": "[10]; [15]", "value": 16, "unit": "µg/mL"}, {"measurement": "MIC", "setting": "[10]; [16]", "value": 16, "unit": "µg/mL"}, {"measurement": "MFC", "setting": "[11]; [15]", "value": 1, "unit": "µg/mL"}, {"measurement": "MIC", "setting": "[11]; [16]", "value": 1, "unit": "µg/mL"}, {"measurement": "MIC", "setting": "[12]", "value": 2, "unit": "µg/mL"}, {"measurement": "MIC", "setting": "[13]", "value": 1, "unit": "µg/mL"}, {"measurement": "MFC", "setting": "[14]; [15]", "value": 2, "unit": "µg/mL"}, {"measurement": "MIC", "setting": "[14]; [16]", "value": 2, "unit": "µg/mL"}]}]}
